Experiments:
[1] = tested on: TYK2 pseudokinase (JH2); IL-23-stimulated HEK-Blue IL-23 cells; experiment: HEK-Blue IL-23 reporter assay (STAT3-inducible SEAP) for profiling TYK2 pseudokinase (JH2) inhibition; type: cell-based; conditions: 10 ng/mL human recombinant IL-23, SEAP readout, read-out: IL23 (TYK2 inhibitory activity, IC50)
Method: (§1) Example B-1: HEK-Blue™ IL-23 and IFNα/β Reporter Assays for Profiling TYK2 Pseudokinase (JH2) Inhibition
(§2) HEK-Blue™ IL-23 and IFNα/β cells with a stably-integrated cytokine receptor and STAT3 or STAT1 express STAT-inducible secreted embryonic alkaline phosphatase (SEAP) reporter gene upon cytokine stimulation. These cells are plated in DMEM (Gibco) containing 10% heat-inactivated FBS (Gibco) and 100 U/mL PenStrep (Gibco) at 37° C. under 5% CO2 conditions for 20-22 hours. The cells are then pretreated with serially diluted test compounds for 60 min prior to stimulation with either 10 ng/mL human recombinant IL-23 (Miltenyl Biotech) or 1 ng/mL human recombinant IFNα (InvivoGen) for 22-24 hours for IL-23 or 16-18 h for IFNα. SEAP induction is measured using the QUANTI Blue™ Solution (InvivoGen) according to the manufacturer's instructions.

[2] = tested on: TYK2 pseudokinase (JH2); IFNα-stimulated HEK-Blue IFNα/β cells; experiment: HEK-Blue IFNα/β reporter assay (STAT1-inducible SEAP) for profiling TYK2 pseudokinase (JH2) inhibition; type: cell-based; conditions: 1 ng/mL human recombinant IFNα, SEAP readout, read-out: IFNα (TYK2 inhibitory activity, IC50)
Method: as §1, §2

TYK2 kinase domain (JH1) = molecular target: T1, TYK2 kinase domain (JH1) (Homo sapiens, UniProt P29597); experiment: HTRF-based selectivity assay, TYK2 catalytic domain; type: biochemical; conditions: 20 μM ATP
T1 construct: recombinant purified His or GST-tagged catalytic domain for each enzyme; made in house
T1 sequence (P29597 897-1176 limits assumed): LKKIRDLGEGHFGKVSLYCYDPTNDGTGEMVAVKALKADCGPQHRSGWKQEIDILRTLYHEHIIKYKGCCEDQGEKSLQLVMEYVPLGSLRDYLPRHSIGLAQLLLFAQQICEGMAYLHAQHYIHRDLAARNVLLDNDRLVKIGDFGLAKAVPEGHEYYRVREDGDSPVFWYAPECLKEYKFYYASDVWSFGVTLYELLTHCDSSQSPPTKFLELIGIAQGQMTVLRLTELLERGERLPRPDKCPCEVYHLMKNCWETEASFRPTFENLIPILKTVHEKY
Method: (§3) Example B-2: HTRF-Based Selectivity Assay
(§4) The ability of compounds to inhibit the activity of JAK1, JAK2, JAK3 and TYK2 is measured using a recombinant purified His or GST-tagged catalytic domain for each enzyme (JAK1, JAK2 and TYK2 are generated in-house; JAK3 was purchased from Carna biosciences, Cat #08-046) in an HTRF format biochemical assay. The reactions employs a commercial peptide substrate from Cisbio (Cat #62TK0PEC). The basic assay protocol is as follows: first, 2.5 μL of diluted compounds (4×) in DMSO are dispensed into a 384-well Optiplate. Next, 2.5 μL of enzyme (final concentrations for enzymes are: TYK2—700 ng/mL, JAK1—80.6 ng/mL, JAK2—2.1 ng/mL and JAK3—171.8 ng/mL) is added and incubated at RT for 5-20 min. Finally, 5 μl of mixture of 2×ATP [Final concentration 20 μM for TYK2, 21.43 μM for JAK1, 14.7 μM for JAK2 and 2.12 μM for JAK3]+2× Substrate [Final concentration 217 nM for TYK2, 454.7 nM for JAK1, 200 nM for JAK2 and 257.4 nM for JAK3] is added to 384 well Optiplate. Composition of Kinase assay buffer used in the assay is as follows: HEPES 50 mM, EGTA 1 mM, MgCl2 10 mM, DTT 2 mM, Tween-20 0.01% and water. Then the plates are shaken and then incubated at 26.5° C. for 60 min.

JAK2 kinase domain (JH1) = molecular target: T2, JAK2 kinase domain (JH1) (Homo sapiens, UniProt O60674); experiment: HTRF-based selectivity assay, JAK2 catalytic domain; type: biochemical; conditions: 14.7 μM ATP
T2 construct: recombinant purified His or GST-tagged catalytic domain for each enzyme; made in house
T2 sequence (O60674 849-1124 limits assumed): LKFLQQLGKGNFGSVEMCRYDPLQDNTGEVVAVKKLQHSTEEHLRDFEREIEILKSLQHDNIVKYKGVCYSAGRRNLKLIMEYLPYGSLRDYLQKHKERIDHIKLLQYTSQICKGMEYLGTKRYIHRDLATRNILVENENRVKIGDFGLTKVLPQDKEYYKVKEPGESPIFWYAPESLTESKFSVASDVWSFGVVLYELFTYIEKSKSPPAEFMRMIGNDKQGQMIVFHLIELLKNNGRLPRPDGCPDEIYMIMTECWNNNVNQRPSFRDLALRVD
Method: as §3, §4

JAK3 kinase domain (JH1) = molecular target: T3, JAK3 kinase domain (JH1) (Homo sapiens, UniProt P52333); experiment: HTRF-based selectivity assay, JAK3 catalytic domain; type: biochemical; conditions: 2.12 μM ATP
T3 construct: recombinant purified His or GST-tagged catalytic domain for each enzyme; purchased Carna biosciences 08-046
T3 sequence (P52333 822-1111 limits assumed): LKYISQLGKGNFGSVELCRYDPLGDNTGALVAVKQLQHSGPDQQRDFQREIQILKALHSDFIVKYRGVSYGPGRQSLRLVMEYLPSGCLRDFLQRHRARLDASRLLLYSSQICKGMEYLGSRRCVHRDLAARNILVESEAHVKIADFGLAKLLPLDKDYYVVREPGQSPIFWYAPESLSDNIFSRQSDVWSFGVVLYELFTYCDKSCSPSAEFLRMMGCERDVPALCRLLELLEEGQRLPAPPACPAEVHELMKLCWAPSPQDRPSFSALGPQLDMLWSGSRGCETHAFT
Method: as §3, §4

[3] = tested on: IL-2-stimulated HEK-Blue IL-2 reporter cells; experiment: HEK-Blue IL-2 reporter assay (STAT5-inducible SEAP) for determining selectivity; type: cell-based; conditions: 4 ng/mL human recombinant IL-2, 24 hours
Method: (§5) Example B-3: HEK-Blue™ IL-2 and IFNγ Reporter Assays for Determining Selectivity
(§6) HEK-Blue™ IL-2 and IFNγ reporter cells with a stably-integrated cytokine receptor and STAT5 or STAT1 express STAT-inducible secreted embryonic alkaline phosphatase (SEAP) reporter gene upon cytokine stimulation. These cells were plated in DMEM (Gibco) containing 10% heat-inactivated FBS (Gibco) and 100 U/mL PenStrep (Gibco) at 37° C. under 5% CO2 conditions for 20-22 hours. The cells were then pretreated with serially diluted test compounds for 60 min prior to stimulation with either 4 ng/mL human recombinant IL-2 (Miltenyl Biotech) or 50 ng/mL human recombinant IFNγ (InvivoGen) for 24 hours. SEAP induction was measured using the QUANTI-Blue™ Solution (InvivoGen) according to the manufacturer's instructions.

[4] = tested on: IFNγ-stimulated HEK-Blue IFNγ reporter cells; experiment: HEK-Blue IFNγ reporter assay (STAT1-inducible SEAP) for determining selectivity; type: cell-based; conditions: 50 ng/mL human recombinant IFNγ, 24 hours, read-out: IFN-γ SEAP selectivity assay IC50
Method: as §5, §6

JAK1 kinase domain (JH1) = molecular target: T4, JAK1 kinase domain (JH1) (Homo sapiens, UniProt P23458); experiment: HTRF-based selectivity assay, JAK1 catalytic domain; type: biochemical; conditions: 21.43 μM ATP, read-out: JAK-JHI (IC50)
T4 construct: recombinant purified His or GST-tagged catalytic domain for each enzyme; made in house
T4 sequence (P23458 875-1153 limits assumed): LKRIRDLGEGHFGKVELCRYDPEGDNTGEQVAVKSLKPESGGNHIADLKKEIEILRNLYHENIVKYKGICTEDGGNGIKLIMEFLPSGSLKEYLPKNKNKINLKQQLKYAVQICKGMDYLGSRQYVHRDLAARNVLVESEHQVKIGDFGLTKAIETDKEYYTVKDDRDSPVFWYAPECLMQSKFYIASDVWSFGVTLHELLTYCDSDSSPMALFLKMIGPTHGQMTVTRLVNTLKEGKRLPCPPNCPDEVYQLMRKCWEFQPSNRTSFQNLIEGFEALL
Method: as §3, §4

IC50 (TYK2 kinase domain (JH1)) [µM]	IC50 (JAK2 kinase domain (JH1)) [µM]	IC50 (JAK3 kinase domain (JH1)) [µM]	IC50 (JAK1 kinase domain (JH1)) [µM]	SMILES	IC50 [1] [µM]	IC50 [2] [µM]	IC50 [3] [µM]	IC50 [4] [µM]
> 1	> 1	> 1		CN1Cc2cn(C)nc2-c2cccc(Nc3cc(NC(=O)C4CC4)nc4[nH]n(C)c(=O)c34)c21 [Compound 89, N-(4-((2,5-dimethyl-4,5-dihydro-2H-pyrazolo[4,3-c]quinolin-6-yl)amino)-2-methyl-3-oxo-2,3-dihydro-1H-pyrazolo[3,4-b]pyridin-6-yl)cyclopropanecarboxamide]	< 0.03	0.03 to 0.3	> 1	> 1
> 1	> 1		> 1	[2H]C([2H])([2H])NC(=O)c1cnc(NC(=O)C2CC2)cc1Nc1nccc2c1N(C)Cc1cn(C)nc1-2 [Compound 64, 6-(cyclopropanecarboxamido)-4-((2,5-dimethyl-4,5-dihydro-2H-pyrazolo[4,3-c][1,7]naphthyridin-6-yl)amino)-N-(methyl-d3)nicotinamide]	< 0.03	< 0.03	> 1	0.3 to 1
> 1	> 1		> 1	[2H]C([2H])([2H])NC(=O)c1cnc(NC(=O)C2CC2)cc1Nc1cccc2c1N(C)Cc1cn(C3COC3)nc1-2 [Compound 29, 6-(cyclopropanecarboxamido)-N-(methyl-d3)-4-((5-methyl-2-(oxetan-3-yl)-4,5-dihydro-2H-pyrazolo[4,3-c]quinolin-6-yl)amino)nicotinamide]	< 0.03	< 0.03	> 1	> 1
> 1	> 1		> 1	[2H]C([2H])([2H])NC(=O)c1nnc(NC(=O)C2CC2)cc1Nc1nccc2c1N(C([2H])([2H])[2H])Cc1cn(C)nc1-2 [Compound 67, 6-(cyclopropanecarboxamido)-N-(methyl-d3)-4-((2-methyl-5-(methyl-d3)-4,5-dihydro-2H-pyrazolo[4,3-c][1,7]naphthyridin-6-yl)amino)pyridazine-3-carboxamide]	< 0.03	< 0.03		

The next lines start with the molecule.

SMILES	IC50 (TYK2 kinase domain (JH1)) [µM]	IC50 (JAK2 kinase domain (JH1)) [µM]	IC50 (JAK3 kinase domain (JH1)) [µM]	IC50 (JAK1 kinase domain (JH1)) [µM]	IC50 [1] [µM]	IC50 [2] [µM]	IC50 [3] [µM]	IC50 [4] [µM]
Cn1cc2c(n1)-c1cccc(Nc3cc(NC(=O)C4CC4)nc4[nH]n(C)c(=O)c34)c1OC2 [Compound 88, N-(2-methyl-4-((2-methyl-2,4-dihydrochromeno[4,3-c]pyrazol-6-yl)amino)-3-oxo-2,3-dihydro-1H-pyrazolo[3,4-b]pyridin-6-yl)cyclopropanecarboxamide]	> 1	> 1	> 1		0.3 to 1	> 1	> 1	> 1
[2H]C([2H])([2H])NC(=O)c1nnc(NC(=O)C2CC2)cc1Nc1cccc2c1N(C([2H])([2H])[2H])Cc1cn(C)nc1-2 [Compound 28, 6-(cyclopropanecarboxamido)-N-(methyl-d3)-4-((2-methyl-5-(methyl-d3)-4,5-dihydro-2H-pyrazolo[4,3-c]quinolin-6-yl)amino)pyridazine-3-carboxamide]		> 1	> 1	> 1	< 0.03	< 0.03	0.3 to 1	0.03 to 0.3
[2H]C([2H])([2H])NC(=O)c1cnc(NC(=O)NC)cc1Nc1cccc2c1N(C)Cc1cn(C)nc1-2 [Compound 25, 4-((2,5-dimethyl-4,5-dihydro-2H-pyrazolo[4,3-c]quinolin-6-yl)amino)-N-(methyl-d3)-6-(3-methylureido)nicotinamide]	> 1	> 1		> 1	< 0.03	< 0.03	> 1	> 1
[2H]C([2H])([2H])NC(=O)c1nnc(NC(=O)C2CC2)cc1Nc1cccc2c1N(C)C([2H])([2H])c1ccnn1-2 [Compound 58, 6-(cyclopropanecarboxamido)-N-(methyl-d3)-4-((5-methyl-4,5-dihydropyrazolo[1,5-a]quinoxalin-6-yl-4,4-d2)amino)pyridazine-3-carboxamide]					< 0.03	< 0.03	> 1	0.3 to 1

Reference: patent US12122785B2, “Substituted pyridines, pyridazines, pyrimidines, and 1,2,4-triazines as TYK2 inhibitors” (Sudo Biosciences Limited, priority 2021, dated 2024)
